Measured values reported in patent US20230137816A1, “ADMINISTRATION OF CALCIUM CHANNEL TRPC6 INHIBITORS USING BALLOONS, STENTS OR OTHER MEDICAL DEVICES” (DEUTSCHES HERZZENTRUM MUENCHEN DES FREISTAATES BAYERN, priority 2020, published 2023).

Key:
Assay type in all cases: cell-based
[1] = tested on: human aortic smooth muscle cells (hAoSMC); assay: Scratch wound assay of human aortic SMCs (cell migration); parameters: VSMC migration (wound reclosure) / VSMC migration versus control: dose or concentration left out as unconfirmed; conditions: for wound reclosure: 100 μM OAG
Protocol: (§1) Human aortic smooth muscle cells (hAoSMC) were purchased from PromoCell (Heidelberg, Germany) and cultured at 37° C. in a humidified 5% CO2 atmosphere in the recommended cell culture medium (PromoCell, Heidelberg, Germany).
For scratch wound assays, cells were seeded in 24 well plates at a density of 100,000 cells per well. After they had grown to confluence for 24 h the cell monolayer was scratched in the middle with a 200 μl pipette tip. Cells were washed with PBS and incubated in growth medium supplemented with OAG (Sigma-Aldrich, St. […] Wound area was measured directly after the scratch (t0) and after 6 h (t1), 8 h (t2) and 12 h (t3) with a phase-contrast microscope (Axiovert 100, Zeiss, Oberkochen, Germany) and assessed with ImageJ version 1.47v. Wound reclosure was measured as Δt0-t1 (6 h), Δt0-t2 (8 h), and Δt0-t3 (12 h) in pixels. Scratch assays were performed in triplicates. For radius assays, 24-well plates were coated with gelatin solution (Pelobiotech, Planegg, Germany). Culture cylinders (total diameter 4 mm, inner diameter 2 mm; Bioptechs, Butler, Pa., USA) were then placed in the middle of the well and cells were seeded at a density of 100,000 cells per well around the cylinders. 20 μL of SAR 7334 with a final concentration of 100 nM in gelatin were added to the inner of the cylinders. 1% DMSO was used as control. After 24 h of incubation cylinders were removed and pictures were acquired immediately (t0) and after 48 h (t1) using a phase-contrast microscopy system (Axiovert 100, Zeiss, Oberkochen, Germany). Wound reclosure was measured as Δt0-t1 (48 h) in pixels. Measurements were performed in duplicates.
For scratch wound assays, cells were seeded in 24 well plates at a density of 100,000 cells per well. After they had grown to confluence for 24 h the cell monolayer was scratched in the middle with a 200 μl pipette tip. Cells were washed with PBS and incubated in growth medium supplemented with OAG (Sigma-Aldrich, St. Louis, Mo., USA) at final concentration of 100 μM or SAR 7334 (Bio-Techne, Wiesbaden, Germany) at a final concentration of 100 nM. 1% DMSO was used as control. Wound area was measured directly after the scratch (t0) and after 6 h (t1), 8 h (t2) and 12 h (t3) with a phase-contrast microscope (Axiovert 100, Zeiss, Oberkochen, Germany) and assessed with ImageJ version 1.47v. Wound reclosure was measured as Δt0-t1 (6 h), Δt0-t2 (8 h), and Δt0-t3 (12 h) in pixels. Scratch assays were performed in triplicates. For radius assays, 24-well plates were coated with gelatin solution (Pelobiotech, Planegg, Germany). Culture cylinders (total diameter 4 mm, inner diameter 2 mm; Bioptechs, Butler, Pa., USA) were then placed in the middle of the well and cells were seeded at a density of 100,000 cells per well around the cylinders. 20 μL of SAR 7334 with a final concentration of 100 nM in gelatin were added to the inner of the cylinders. 1% DMSO was used as control. After 24 h of incubation cylinders were removed and pictures were acquired immediately (t0) and after 48 h (t1) using a phase-contrast microscopy system (Axiovert 100, Zeiss, Oberkochen, Germany). Wound reclosure was measured as Δt0-t1 (48 h) in pixels. Measurements were performed in duplicates.

[2] = tested on: human aortic smooth muscle cells (hAoSMC); assay: Radius migration assay of human aortic SMC on SAR7334 coating; conditions: culture dish coated with SAR7334 (100 nM in gelatin), 48 h
Protocol: as §1
For scratch wound assays, cells were seeded in 24 well plates at a density of 100,000 cells per well. After they had grown to confluence for 24 h the cell monolayer was scratched in the middle with a 200 μl pipette tip. Cells were washed with PBS and incubated in growth medium supplemented with OAG (Sigma-Aldrich, St. Louis, Mo., USA) at final concentration of 100 μM or SAR 7334 (Bio-Techne, Wiesbaden, Germany) at a final concentration of […]. 1% DMSO was used as control. Wound area was measured directly after the scratch (t0) and after 6 h (t1), 8 h (t2) and 12 h (t3) with a phase-contrast microscope (Axiovert 100, Zeiss, Oberkochen, Germany) and assessed with ImageJ version 1.47v. Wound reclosure was measured as Δt0-t1 (6 h), Δt0-t2 (8 h), and Δt0-t3 (12 h) in pixels. […] Wound reclosure was measured as Δt0-t1 (48 h) in pixels. […]
For scratch wound assays, cells were seeded in 24 well plates at a density of 100,000 cells per well. […] Wound area was measured directly after the scratch (t0) and after 6 h (t1), 8 h (t2) and 12 h (t3) with a phase-contrast microscope (Axiovert 100, Zeiss, Oberkochen, Germany) and assessed with ImageJ version 1.47v. […]

[3] = tested on: human aortic smooth muscle cells (hAoSMC); assay: Cell proliferation assay, BrdU ELISA; conditions: 100 μM OAG; vehicle 0.08±0.03, p<0.01
Protocol: as §1
Cell proliferation was assessed using of a colorimetric bromodeoxyuridine (BrdU) enzyme-linked immunosorbent assay (ELISA) according to manufacturer's protocol (Roche Applied Science, Penzberg, Germany). Briefly, cells were seeded in 96 well plates at a density of 10,000 cells per well in starving medium, i.e., lacking FBS and growth factors. After 24 h, the starving medium was replaced by growth medium which was either supplemented with 1-Oleoyl-2-acetyl-sn-glycerol (OAG; Sigma-Aldrich, St. Louis, Mo., USA) at a final concentration of 100 μM, SAR 7334 (Tocris Bioscience, Bristol, UK) at a final concentration of 100 nM or with 1% of DMSO which was used as vehicle. After incubation for another 24 h, 10 μl of BrdU solution were added. Absorbance was measured at 370 nm with a reference wavelength of 492 nm in the Infinite M200 PRO microplate reader using the iControl v1.10 software (both Tecan Group, Männedorf, Switzerland) after further 24 h. Measurements were performed in triplicates.

SMILES	VSMC migration versus control ([1]; 6 hours after injury)	VSMC migration versus control ([1]; 8 hours after injury)	VSMC migration (wound reclosure) ([1]; 12 hours after scratch, control 130.0±10.6, p=0.04)	local migration versus control culture [2]	wound reclosure ([1]; 12 hours after scratch, vehicle 156.93±7.06, p=0.01)	wound reclosure ([1]; eight hours after scratch, vehicle 69.05±7.03, p=0.01)	proliferation of human VSMCs (BrdU ELISA) [3]
N#Cc1ccc(O[C@@H]2c3ccccc3C[C@H]2N2CCC[C@@H](N)C2)c(Cl)c1 [SAR7334]	comparable to control levels	comparable to control levels	111.4±15.5 10^3 pixels	reduced local migration	–	–	–
CCCCCCCC/C=C\CCCCCCCC(=O)OC[C@H](CO)OC(C)=O [OAG, 1-oleoyl-2-acetyl-sn-glycerol]	–	–	–	–	179.14±3.61 10^3 pixels	93.09±3.67 10^3 pixels	0.31±0.07 absorbance units
